Data taken from paper PMC4050382, “A novel proteasome inhibitor suppresses tumor growth via targeting both 19S proteasome deubiquitinases and 20S proteolytic peptidases” (Scientific Reports, 2014).

Molecular target: T1, 20S proteasome (CT-like peptidase, β5 subunit) (Homo sapiens, UniProt P28074)
T1 construct: gene PSMB5; purified 20S proteasome; with 20S proteasome
T1 sequence (P28074 60-263): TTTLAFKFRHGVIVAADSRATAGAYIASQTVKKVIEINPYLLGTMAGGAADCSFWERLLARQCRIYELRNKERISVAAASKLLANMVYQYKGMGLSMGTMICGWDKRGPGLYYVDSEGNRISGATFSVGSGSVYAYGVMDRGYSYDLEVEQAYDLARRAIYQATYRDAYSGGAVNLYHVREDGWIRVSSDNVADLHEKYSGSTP
Experiment: fluorogenic CT-like peptidase assay with purified […] proteasome
Format: biochemical

Compound: [O-][n+]1ccccc1[S][Cu][S]c1cccc[n+]1[O-] [L1, CuPT]
- IC50: ~6 µM
